Columns and labels:
barnyard grass [1] = assay: Test Example 5: herbicidal effect by foliage application, plastic box (Table 20, symbol H); format: in vivo, barnyard grass (Echinochloa crus-galli); details: foliage application
Outline: (§1)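 Plants were sown into sterilized diluvial soil under about 1.5 cm cover and kept in a greenhouse at 25° C. to 30° C. Fourteen days on, foliage received an even spray of the diluted emulsion. Herbicidal or crop effect was judged three weeks afterwards.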

wild oat [2] = assay: Test Example 4: herbicidal effect by soil treatment (Table 19, symbol I); format: in vivo, wild oat (Avena fatua); details: amount of applied herbicide 320 g/ha
Outline: (§2)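 Pre-emergence style soil spray: seeds under ~1.5 cm sterilized diluvial soil received a uniform coat of emulsion diluted to the predetermined herbicide amount. Greenhouse 25–30° C; readout at week three on previously defined criteria.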

Chinese sprangletop = assay: Test Example 3: herbicidal effect by foliage application, Wagner pot (Table 18, symbol D); format: in vivo, chinese sprangletop (Leptochloa chinensis); details: amount of applied herbicide 320 g/ha
Outline: (§3)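 Plants were sown in alluvial soil held under 0.1–0.5 cm standing water and grown 14 days in a greenhouse at 25–30 °C. An emulsifiable formulation, water-diluted to the set dose, was then sprayed onto the foliage, and effects were scored three weeks later using previously defined criteria.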

lambsquarters [3] = assay: Test Example 4: herbicidal effect by soil treatment (Table 19, symbol O); format: in vivo, lambsquarters (Chenopodium album); details: amount of applied herbicide 320 g/ha
Outline: as §2

southern crabgrass [4] = assay: Test Example 4: herbicidal effect by soil treatment (Table 19, symbol F); format: in vivo, southern crabgrass (Digitaria ciliaris); details: amount of applied herbicide 320 g/ha
Outline: as §2

redroot pigweed [5] = assay: Test Example 5: herbicidal effect by foliage application, plastic box (Table 20, symbol N); format: in vivo, redroot pigweed (Amaranthus retroflexus); details: foliage application
Outline: as §1

wild oat [6] = assay: Test Example 5: herbicidal effect by foliage application, plastic box (Table 20, symbol I); format: in vivo, wild oat (Avena fatua); details: foliage application
Outline: as §1

false cleavers = assay: Test Example 4: herbicidal effect by soil treatment (Table 19, symbol Q); format: in vivo, false cleavers (Galium spurium); details: amount of applied herbicide 320 g/ha
Outline: as §2

green foxtail [7] = assay: Test Example 4: herbicidal effect by soil treatment (Table 19, symbol G); format: in vivo, green foxtail (Setaria viridis); details: amount of applied herbicide 320 g/ha
Outline: as §2

redroot pigweed [8] = assay: Test Example 4: herbicidal effect by soil treatment (Table 19, symbol N); format: in vivo, redroot pigweed (Amaranthus retroflexus); details: amount of applied herbicide 320 g/ha
Outline: as §2

persian speedwell [9] = assay: Test Example 4: herbicidal effect by soil treatment (Table 19, symbol R); format: in vivo, Persian speedwell (Veronica persica); details: amount of applied herbicide 320 g/ha
Outline: as §2

persian speedwell [10] = assay: Test Example 5: herbicidal effect by foliage application, plastic box (Table 20, symbol R); format: in vivo, Persian speedwell (Veronica persica); details: foliage application
Outline: as §1

barnyard grass [11] = assay: Test Example 4: herbicidal effect by soil treatment (Table 19, symbol H); format: in vivo, barnyard grass (Echinochloa crus-galli); details: amount of applied herbicide 320 g/ha
Outline: as §2

chickweed [12] = assay: Test Example 4: herbicidal effect by soil treatment (Table 19, symbol P); format: in vivo, common chickweed (Stellaria media); details: amount of applied herbicide 320 g/ha
Outline: as §2

windgrass [13] = assay: Test Example 4: herbicidal effect by soil treatment (Table 19, symbol L); format: in vivo, windgrass (Apera spica-venti); details: amount of applied herbicide 320 g/ha
Outline: as §2

lambsquarters [14] = assay: Test Example 5: herbicidal effect by foliage application, plastic box (Table 20, symbol O); format: in vivo, lambsquarters (Chenopodium album); details: foliage application
Outline: as §1

windgrass [15] = assay: Test Example 5: herbicidal effect by foliage application, plastic box (Table 20, symbol L); format: in vivo, windgrass (Apera spica-venti); details: foliage application
Outline: as §1

barnyard grass [16] = assay: Test Example 3: herbicidal effect by foliage application, Wagner pot (Table 18, symbol H); format: in vivo, barnyard grass (Echinochloa crus-galli); details: amount of applied herbicide 320 g/ha
Outline: as §3

velvetleaf [17] = assay: Test Example 5: herbicidal effect by foliage application, plastic box (Table 20, symbol M); format: in vivo, velvetleaf (Abutilon theophrasti); details: foliage application
Outline: as §1

chickweed [18] = assay: Test Example 5: herbicidal effect by foliage application, plastic box (Table 20, symbol P); format: in vivo, common chickweed (Stellaria media); details: foliage application
Outline: as §1

blackgrass [19] = assay: Test Example 4: herbicidal effect by soil treatment (Table 19, symbol J); format: in vivo, blackgrass (Alopecurus myosuroides); details: amount of applied herbicide 320 g/ha
Outline: as §2

southern crabgrass [20] = assay: Test Example 5: herbicidal effect by foliage application, plastic box (Table 20, symbol F); format: in vivo, southern crabgrass (Digitaria ciliaris); details: foliage application
Outline: as §1

green foxtail [21] = assay: Test Example 5: herbicidal effect by foliage application, plastic box (Table 20, symbol G); format: in vivo, green foxtail (Setaria viridis); details: foliage application
Outline: as §1

rice flat sedge = assay: Test Example 3: herbicidal effect by foliage application, Wagner pot (Table 18, symbol E); format: in vivo, rice flat sedge (Cyperus iria); details: amount of applied herbicide 320 g/ha
Outline: as §3

Italian ryegrass [22] = assay: Test Example 5: herbicidal effect by foliage application, plastic box (Table 20, symbol K); format: in vivo, Italian ryegrass (Lolium multiflorum); details: foliage application
Outline: as §1

velvetleaf [23] = assay: Test Example 4: herbicidal effect by soil treatment (Table 19, symbol M); format: in vivo, velvetleaf (Abutilon theophrasti); details: amount of applied herbicide 320 g/ha
Outline: as §2

blackgrass [24] = assay: Test Example 5: herbicidal effect by foliage application, plastic box (Table 20, symbol J); format: in vivo, blackgrass (Alopecurus myosuroides); details: foliage application
Outline: as §1

Italian ryegrass [25] = assay: Test Example 4: herbicidal effect by soil treatment (Table 19, symbol K); format: in vivo, Italian ryegrass (Lolium multiflorum); details: amount of applied herbicide 320 g/ha
Outline: as §2

[26] = AAH 320 g/ha, evaluated three weeks after application
[27] = 320 g/ha, three weeks after application

Row | SMILES | herbicidal effect, I: wild oat (wild oat [2]) | herbicidal effect on D: Chinese sprangletop (Chinese sprangletop) | herbicidal effect, O: lambsquarters (lambsquarters [3]) | herbicidal effect, F: southern crabgrass (southern crabgrass [4]) | herbicidal effect, Q: false cleavers (false cleavers) | herbicidal effect, G: green foxtail (green foxtail [7]) | herbicidal effect, N: redroot pigweed (redroot pigweed [8]) | herbicidal effect, R: persian speedwell (persian speedwell [9]) | herbicidal effect, H: barnyard grass (barnyard grass [11]) | herbicidal effect, P: chickweed (chickweed [12]) | herbicidal effect, L: windgrass (windgrass [13]) | herbicidal effect on H: barnyard grass (barnyard grass [16]) | herbicidal effect, J: blackgrass (blackgrass [19]) | herbicidal effect on E: rice flat sedge (rice flat sedge) | herbicidal effect, M: velvetleaf (velvetleaf [23]) | herbicidal effect, K: Italian ryegrass (Italian ryegrass [25]) | further results
1 | CCn1nc(C)c(O)c(-c2c(-c3ccccc3OC)sc3ccc(F)cc23)c1=O [2-404] | 0 (Herbicidal rate of 5% or less (almost no effect)) | 0 (Herbicidal rate of 5% or less (almost no effect)) | 3 (Herbicidal rate of 40% or more and less than 70%) | 0 (Herbicidal rate of 5% or less (almost no effect)) | 0 (Herbicidal rate of 5% or less (almost no effect)) | 0 (Herbicidal rate of 5% or less (almost no effect)) | 3 (Herbicidal rate of 40% or more and less than 70%) | 0 (Herbicidal rate of 5% or less (almost no effect)) | 0 (Herbicidal rate of 5% or less (almost no effect)) | 0 (Herbicidal rate of 5% or less (almost no effect)) | 0 (Herbicidal rate of 5% or less (almost no effect)) | 3 (Herbicidal rate of 40% or more and less than 70%) | 0 (Herbicidal rate of 5% or less (almost no effect)) | 3 (Herbicidal rate of 40% or more and less than 70%) | 0 (Herbicidal rate of 5% or less (almost no effect)) | 0 (Herbicidal rate of 5% or less (almost no effect)) | H: barnyard grass, herbicidal effect (criteria 0-5) (barnyard grass [1]; [26]): 3 (Herbicidal rate of 40% or more and less than 70%); N: redroot pigweed, herbicidal effect (criteria 0-5) (redroot pigweed [5]; [26]): 5 (Herbicidal rate of 90% or more (almost completely withered)); I: wild oat, herbicidal effect (criteria 0-5) (wild oat [6]; [26]): 0 (Herbicidal rate of 5% or less (almost no effect)); R: persian speedwell, herbicidal effect (criteria 0-5) (persian speedwell [10]; [26]): 5 (Herbicidal rate of 90% or more (almost completely withered)); O: lambsquarters, herbicidal effect (criteria 0-5) (lambsquarters [14]; [26]): 3 (Herbicidal rate of 40% or more and less than 70%); L: windgrass, herbicidal effect (criteria 0-5) (windgrass [15]; [26]): 0 (Herbicidal rate of 5% or less (almost no effect)); M: velvetleaf, herbicidal effect (criteria 0-5) (velvetleaf [17]; [26]): 3 (Herbicidal rate of 40% or more and less than 70%); P: chickweed, herbicidal effect (criteria 0-5) (chickweed [18]; [26]): 5 (Herbicidal rate of 90% or more (almost completely withered)); F: southern crabgrass, herbicidal effect (criteria 0-5) (southern crabgrass [20]; [26]): 2 (Herbicidal rate of 20% or more and less than 40%); G: green foxtail, herbicidal effect (criteria 0-5) (green foxtail [21]; [26]): 1 (Herbicidal rate of 5% or more and less than 20%); K: Italian ryegrass, herbicidal effect (criteria 0-5) (Italian ryegrass [22]; [26]): 0 (Herbicidal rate of 5% or less (almost no effect)); J: blackgrass, herbicidal effect (criteria 0-5) (blackgrass [24]; [26]): 0 (Herbicidal rate of 5% or less (almost no effect))
2 | C=CCSc1ccc(-c2sc3ccc(F)cc3c2-c2c(O)c(C)nn(C)c2=O)cc1 [2-422] | 0 (Herbicidal rate of 5% or less (almost no effect)) | 3 (Herbicidal rate of 40% or more and less than 70%) | 3 (Herbicidal rate of 40% or more and less than 70%) | 1 (Herbicidal rate of 5% or more and less than 20%) | 0 (Herbicidal rate of 5% or less (almost no effect)) | 2 (Herbicidal rate of 20% or more and less than 40%) | 5 (Herbicidal rate of 90% or more (almost completely withered)) | 0 (Herbicidal rate of 5% or less (almost no effect)) | 1 (Herbicidal rate of 5% or more and less than 20%) | 0 (Herbicidal rate of 5% or less (almost no effect)) | 0 (Herbicidal rate of 5% or less (almost no effect)) | 5 (Herbicidal rate of 90% or more (almost completely withered)) | 0 (Herbicidal rate of 5% or less (almost no effect)) | 5 (Herbicidal rate of 90% or more (almost completely withered)) | 1 (Herbicidal rate of 5% or more and less than 20%) | 0 (Herbicidal rate of 5% or less (almost no effect)) | H: barnyard grass, herbicidal effect grade (barnyard grass [1]; [27]): 5 (Herbicidal rate of 90% or more (almost completely withered)); N: redroot pigweed, herbicidal effect grade (redroot pigweed [5]; [27]): 5 (Herbicidal rate of 90% or more (almost completely withered)); I: wild oat, herbicidal effect grade (wild oat [6]; [27]): 5 (Herbicidal rate of 90% or more (almost completely withered)); R: persian speedwell, herbicidal effect grade (persian speedwell [10]; [27]): 5 (Herbicidal rate of 90% or more (almost completely withered)); O: lambsquarters, herbicidal effect grade (lambsquarters [14]; [27]): 5 (Herbicidal rate of 90% or more (almost completely withered)); L: windgrass, herbicidal effect grade (windgrass [15]; [27]): 5 (Herbicidal rate of 90% or more (almost completely withered)); M: velvetleaf, herbicidal effect grade (velvetleaf [17]; [27]): 5 (Herbicidal rate of 90% or more (almost completely withered)); P: chickweed, herbicidal effect grade (chickweed [18]; [27]): 5 (Herbicidal rate of 90% or more (almost completely withered)); F: southern crabgrass, herbicidal effect grade (southern crabgrass [20]; [27]): 2 (Herbicidal rate of 20% or more and less than 40%); G: green foxtail, herbicidal effect grade (green foxtail [21]; [27]): 5 (Herbicidal rate of 90% or more (almost completely withered)); K: Italian ryegrass, herbicidal effect grade (Italian ryegrass [22]; [27]): 5 (Herbicidal rate of 90% or more (almost completely withered)); J: blackgrass, herbicidal effect grade (blackgrass [24]; [27]): 4 (Herbicidal rate of 70% or more and less than 90%)

From patent US20230085307A1, “PYRIDAZINONE COMPOUND AND HERBICIDE” (NISSAN CHEMICAL CORPORATION, priority 2019, published 2023)
